Read-outs that look alike come from different tables or passages of the source.
Key:
Test in all cases: Agar dilution MIC, in vitro antibacterial activity test
Type in all cases: cell-based
[1] = test system: Escherichia coli 1507 E; settings: 18 h
Method: (§1) The antibacterial activity of each of sulbactam and the compounds I, II, III and IV was measured according to the agar dilution method using Mueller Hinton agar. The compounds to be tested were diluted twice in stages and then introduced into the agar plate. On this agar plate the selected bacterial strains were inoculated and then incubated at 37 °C for 18 hours. The agar plate was then visually observed to determine the minimum concentration, at which the growth of bacterial strains was not observed, which is then designated as the MIC value of the relevant antibiotic compound.
(§2) In the same manner, the MIC value of the compound I, II, III or IV in the presence of sulbactam was measured. In this case, the concentration of sulbactam in each agar plate should be constantly maintained at about 13µg/ml, which corresponds to approximately a quarter of the MIC value of sulbactam, to ensure that the decrease in MIC value of the compounds I - IV in the presence of sulbactam is not affected by the antibacterial activity of sulbactam itself. […] As a result of this experiment, the MIC values of each of four kinds of antibiotics, i.e. the compound I, II, III or IV used alone and in the presence of sulbactam were compared to each other and then the synergistic effect of the composition of the present invention was estimated.

[2] = test system: Escherichia coli DC 0; settings: DC0, 18 h
Method: as §1, §2

[3] = test system: Escherichia coli DC 2; settings: DC2, 18 h
Method: as §1, §2

[4] = test system: Escherichia coli O 55; settings: O55, 18 h
Method: as §1, §2

[5] = test system: Escherichia coli TEM; settings: 18 h
Method: as §1, §2

[6] = test system: Pseudomonas aeruginosa 1771 M; settings: 18 h
Method: as §1, §2

[7] = test system: Staphylococcus aureus 285; settings: Staphylococcus aureus, 285, 18 h
Method: as §1, §2

[8] = test system: Staphylococcus aureus 503; settings: Staphylococcus aureus, 503, 18 h
Method: as §1, §2

[9] = read-out: MIC value, alone, Mueller Hinton agar, 37°C
[10] = alone, Mueller Hinton agar, 37°C, read-out: MIC value
[11] = in the presence of sulbactam(13μg/ml), Mueller Hinton agar, 37°C, read-out: MIC value
[12] = read-out: MIC value, in the presence of sulbactam(13μg/ml), Mueller Hinton agar, 37°C

## CC1(C)[C@H](C(=O)O)N2C(=O)C[C@H]2S1(=O)=O [sulbactam]
[1]; [9]
  MIC: > 100 µg/mL
[2]; [9]
  MIC: > 100 µg/mL
[3]; [9]
  MIC: 100 µg/mL
[4]; [9]
  MIC: 100 µg/mL
[5]; [9]
  MIC: > 100 µg/mL
[6]; [9]
  MIC: 50 µg/mL
[7]; [9]
  MIC: 100 µg/mL
[8]; [9]
  MIC: 100 µg/mL

## CC1(C)S[C@@H]2C(NC(=O)[C@H](N)c3ccc(O)cc3)C(=O)N2[C@H]1C(=O)O (stereo partly drawn) [compound I, 6-[D(-)-α-amino-p-hydroxyphenylacetamido]penicillanic acid]
[1]; [10]
  MIC: 3.12 µg/mL
[1]; [11]
  MIC: 0.391 µg/mL
[2]; [10]
  MIC: 6.25 µg/mL
[2]; [11]
  MIC: 0.781 µg/mL
[3]; [9]
  MIC: 1.56 µg/mL
[3]; [12]
  MIC: 0.781 µg/mL
[4]; [10]
  MIC: 1.56 µg/mL
[4]; [11]
  MIC: < 0.002 µg/mL
[5]; [9]
  MIC: > 100 µg/mL
[5]; [12]
  MIC: > 100 µg/mL
[6]; [10]
  MIC: 0.098 µg/mL
[6]; [11]
  MIC: 0.098 µg/mL
[7]; [10]
  MIC: 1.56 µg/mL
[7]; [11]
  MIC: 0.195 µg/mL
[8]; [10]
  MIC: 1.56 µg/mL
[8]; [11]
  MIC: 0.098 µg/mL

## CNC(=O)C[C@@H](N)C(=O)N[C@@H](C(=O)N[C@@H]1C(=O)N2[C@@H]1SC(C)(C)[C@@H]2C(=O)O)c1ccc(O)cc1 [compound IV, 6-[D-2-(D-2-amino-3-N-methylcarbamoyl-propionamido)-2-p-hydroxyphenylacetamido]penicillanic acid]
[1]; [9]
  MIC: 3.12 µg/mL
[1]; [12]
  MIC: 0.098 µg/mL
[2]; [9]
  MIC: 3.12 µg/mL
[2]; [12]
  MIC: 0.781 µg/mL
[3]; [9]
  MIC: 0.781 µg/mL
[3]; [12]
  MIC: 0.195 µg/mL
[4]; [9]
  MIC: 0.781 µg/mL
[4]; [12]
  MIC: < 0.002 µg/mL
[5]; [9]
  MIC: > 100 µg/mL
[5]; [12]
  MIC: 25 µg/mL
[6]; [9]
  MIC: 0.391 µg/mL
[6]; [12]
  MIC: 0.025 µg/mL
[7]; [9]
  MIC: 6.25 µg/mL
[7]; [12]
  MIC: 1.56 µg/mL
[8]; [9]
  MIC: 6.25 µg/mL
[8]; [12]
  MIC: 1.56 µg/mL

## CCN1CCN(C(=O)N[C@@H](C(=O)NC2C(=O)N3[C@@H]2SC(C)(C)[C@@H]3C(=O)O)c2ccc(O)cc2)C(=O)C1=O (stereo partly drawn) [compound III, 6-[D-2-(4-ethyl-2,3-dioxopiperazinocarbonylamino)-2-(4-hydroxyphenyl)acetamido]penicillanic acid]
[1]; [10]
  MIC: 0.781 µg/mL
[1]; [11]
  MIC: 0.098 µg/mL
[2]; [11]
  MIC: 0.195 µg/mL
[2]; [9]
  MIC: 1.56 µg/mL
[3]; [10]
  MIC: 0.098 µg/mL
[3]; [11]
  MIC: 0.025 µg/mL
[4]; [10]
  MIC: 0.195 µg/mL
[4]; [11]
  MIC: < 0.002 µg/mL
[5]; [9]
  MIC: > 100 µg/mL
[5]; [12]
  MIC: 1.56 µg/mL
[6]; [10]
  MIC: 0.098 µg/mL
[6]; [11]
  MIC: 0.025 µg/mL
[7]; [10]
  MIC: 3.12 µg/mL
[7]; [11]
  MIC: 0.781 µg/mL
[8]; [10]
  MIC: 6.25 µg/mL
[8]; [11]
  MIC: 0.391 µg/mL

## C=N[C@@H](C(=O)NC1C(=O)N2[C@@H]1SC(C)(C)[C@@H]2C(=O)O)c1ccc(O)cc1 (stereo partly drawn) [compound II, 6-[D-2-(methyleneamino)-2-(4-hydroxyphenyl)acetamido]penicillanic acid]
[1]; [10]
  MIC: 6.25 µg/mL
[1]; [11]
  MIC: 0.098 µg/mL
[2]; [10]
  MIC: 6.25 µg/mL
[2]; [11]
  MIC: 3.12 µg/mL
[3]; [10]
  MIC: 1.56 µg/mL
[3]; [11]
  MIC: 0.781 µg/mL
[4]; [10]
  MIC: 1.56 µg/mL
[4]; [11]
  MIC: < 0.002 µg/mL
[5]; [9]
  MIC: > 100 µg/mL
[5]; [12]
  MIC: > 100 µg/mL
[6]; [10]
  MIC: 0.195 µg/mL
[6]; [11]
  MIC: 0.049 µg/mL
[7]; [10]
  MIC: 1.56 µg/mL
[7]; [11]
  MIC: 0.195 µg/mL
[8]; [10]
  MIC: 1.56 µg/mL
[8]; [11]
  MIC: 0.098 µg/mL

From patent EP0606506A1, “Beta-lactamase resistant antibacterial composition” (Kim, Yeong Sul, priority 1993, dated 1994)
